# Test results from patent US20090104119A1, “Dendrimer Based Compositions And Methods Of Using The Same” (priority 2004, published 2009).
# Tests used:
# KB cells = experiment: Inhibition of cell growth by total cell protein
# Procedure: Cell culture and treatment. KB cells were maintained in folate-free medium containing 10% serum (See, e.g., Quintana et al, Pharm. Res. 19, 1310 (2002)) to provide extracellular FA similar to that found in human serum. Cells were plated in 12-well plates for uptake studies, in 24-well plates for cell growth analysis, and in 96-well plates for XTT assay. Cells were rinsed with FA-free medium containing dialyzed serum and incubated at 37° C. with dendrimer-drug conjugates for the indicated time periods and concentrations. KB cells were also maintained in RPMI medium containing 2 μM FA to obtain cells which express low FAR.
# Evaluation of dendrimer cytotoxicity. Cell growth was determined by assay of the total protein in lysates of treated cells using a bicinchoninic acid reagent (PIERCE, and by XTT assay, using a kit from Roche.
# Time course and dose dependent inhibition of cell growth. Previous studies have shown that MTX-induced cytotoxicity is detectable in vitro only if the medium is completely deprived of FA (See, e.g., Sobrero & Bertino, Int. J. Cell Cloning 4, 51 (1986)). The effect of the trifunctional dendrimers on cell growth was tested in cells incubated in a FA-deficient medium. Cells were treated with 300 nM conjugates (equivalent of 1500 nM MTX) or 1500 nM free MTX for 1-4 days, and cell proliferation was determined by estimation of cellular protein content. Cells were treated for 2 days with different concentrations of the conjugates or free MTX (the conjugate concentration is given as MTX equivalents, with 5 MTX per dendrimer molecule). KB cells which express high and low FAR were incubated with 30 nM of the dendrimers for 1 hr at 37° C., rinsed, and the fluorescence of cells was determined by flow cytometric analysis (See. e.g., FIG. 21, left panel).
# KB cells were treated with 150 or 500 nM MTX in the presence or absence of equimolar concentrations of free FA for 24 h. […] The cells were rinsed to remove the drugs and incubated with fresh medium for an additional 6 d, and total cell protein was determined.
# [1] = Toxicity of dendrimer conjugates and free methotrexate in mice (body weight, histopathology); type: in vivo; details: occasional periportal lymphocytes, single-cell necrosis
# Procedure: Delivery of targeted nanoparticle therapeutic. Twice weekly, SCID mice with s.c. KB xenografts, starting on day 4 after tumor implantation, received via the tail vein an injection of either targeted or nontargeted conjugate containing methotrexate, a conjugate without methotrexate, free methotrexate, or saline as a control. The compounds were delivered in a 0.2 mL volume of saline per 20 g of mouse. The single dose of methotrexate delivered each time equaled 0.33 mg/kg. The higher doses of 1.67 and 3.33 mg/kg free methotrexate were also tested. The conjugates were delivered at equimolar concentration of methotrexate calculated based on the number of methotrexate molecules present in a nanoparticle. The conjugate without methotrexate was delivered at equimolar concentration of dendrimer. In the initial trial, six groups of mice with five mice in each group received up to 15 injections. In the follow-up trial, mice received up to 28 injections dependent on their survival. The body weights of the mice were monitored throughout the experiment as an indication of adverse effects of the drug. Histopathology of multiple organs was done at the termination of each trial and each time mouse had to be euthanized due to toxic effects or tumor burden. Tissues from lung, heart, liver, pancreas, spleen, kidney, and tumor were analyzed. Additionally, cells were isolated from tumors, stained with targeted fluorescein-labeled conjugate, and tested for the presence of folic acid receptors using flow cytometer.
# Toxicity of dendrimer conjugates. […] No gross toxicity, either acutely or chronically up to 99 days, was observed regardless of whether the dendrimer conjugate contained methotrexate. The weight was monitored throughout the experiment and no loss of weight was observed; in fact, the animals gained weight. At each time point, a gross examination and histopathology of the liver, spleen, kidney, lung, and heart were done. No morphologic abnormalities were observed on the histopathology examination.
# The remaining experimental groups had very uniform body weight fluctuations nonindicative of toxicity when compared with control groups with saline or conjugate without methotrexate.
# [2] = Stability of dendrimer in cell culture medium (MTX release; ultrafiltration, XTT readout); type: physicochemical
# Procedure: The stability of the dendrimer was tested in cell culture medium to check if MTX was released from the dendrimer prior to its entry into the cells. The G5-FITC-FA-MTX was incubated with cell culture medium for 1, 2, 4 and 24 h, and the incubation medium was filtered using a 10,000-MW cutoff ultrafiltration device. The effect of the retentate and the filtrate on the growth of the KB cells was tested. G5-FITC-FA-MTX was incubated with medium at 2 μM concentration for 24 h. The incubation medium was filtered through a Centricon 10K-MW cutoff filter. The retentate (adjusted to pre-filtration volume) and the filtrate were incubated with KB cells (at 200 nM conjugate, as determined from the concentration of the pre-filtration sample) for 2 days and the XTT assay was performed. Similar results were obtained for the retentate and filtrate obtained from the medium that had been pre-incubated with the dendrimers for 1, 2, and 4 hours. […] There was a slow release of the MTX after 24 h, reaching a maximum of 40-50% release in 1 week.
# [3] = tested on: KB cells which express a high cell surface FA receptor (FAR); experiment: Cellular uptake/binding of dendrimers in high-FAR KB cells, flow cytometry; type: cell-based, human
# Procedure: Cell culture and treatment.
# Flow Cytometry and Confocal Microscopy. The standard fluorescence of the dendrimer solutions was quantified using a Beckman spectrofluorimeter. For flow cytometric analysis of the uptake of the targeted polymer, cells were trypsinized and suspended in PBS containing 0.1% bovine serum albumin (PBSB) and analyzed using a Becton Dickinson FACScan analyzer. The FL1-fluorescence of 10,000 cells was measured and the mean fluorescence of gated viable cells was quantified. Confocal microscopic analysis was performed in cells plated on a glass cover-slip, using a Carl Ziess confocal microscope. Fluorescence and differential interference contrast (DIC) images were collected simultaneously using an argon laser, using the appropriate filters for FITC.
# The cellular uptake of the dendrimers was measured in KB cells which express a high cell surface FA receptor (FAR). The FA-conjugated dendrimers bound to the cells in a dose-dependent fashion, with 50% binding at 10-15 nM for both the G5-FITC-FA and G5-FITC-FA-MTX, while the control dendrimer G5-FITC was not detected in the KB cells (See, e.g., FIG. 18A). Identical binding curves were obtained for the G5-FITC-FA and G5-FITC-FA-MTX when the fluorescence obtained was normalized for the quenching observed in the standard solutions of the dendrimers (See e.g., FIG. 18B).
# The effect of free FA on the uptake of the dendrimers was tested in KB cells that express both high and low FAR. The binding of the conjugates to the low FAR-expressing KB cells was 30% of that of the high FAR-expressing cells for both the G5-FITC-FA and G5-FITC-FA-MTX (See, for e.g., FIG. 19, left panel). […] The binding and internalization of the dendrimers to KB cells was assessed by confocal microscopy. KB cells were incubated with 250 nM of the indicated dendrimers for 24 hours and confocal images were taken. Conjugates containing the targeting molecule FA internalized into KB cells within 24 h (See, e.g., FIG. 20).
# [4] = 2 μM, up to 24 h in medium, 10K-MW cutoff filter, KB cells 2 days, XTT
substance,measurement,setting,value
G5-(Ac)82-(FITC)5-(FA)5-MTX5 [G5-FITC-FA-MTX],cytotoxicity compared with equimolar combinations of free FA and MTX,"KB cells; 30 and 100 nM conjugate (150 and 500 nM MTX), 24 h then 6 d",similar
same,inhibition of cell growth (FIGS. 21 and 22),"KB cells; FA-deficient medium, 1-4 days, different concentrations",inhibited cell growth in a time- and dose-dependent fashion
same,liver slides versus saline controls,[1],did not differ from that of control animals injected with saline
same,cytotoxicity of filtrate after incubation in medium,[2]; [4],failed to show any cytotoxicity
same,cytotoxicity of retentate after incubation in medium,[2]; [4],cytotoxic
same,"release of MTX, maximum","[2]; slow release after 24 h, in 1 week",40-50%
same,time to maximal binding,[3]; 100 nM,≤ 30 min
same,"effect of free FA on uptake, high-FAR expressing cells","[3]; 50 μM FA, dendrimer 30 nM",completely blocked
